{"source": "ChEMBL document CHEMBL1201862", "about": "“PubChem BioAssay data set” (2004)", "assay_in_all_cases": "NCI tumour cell line growth inhibition, 48 h", "key": {"HT-29": {"tested_on": "HT-29"}, "HOP-62": {"tested_on": "HOP-62"}, "OVCAR-5": {"tested_on": "OVCAR-5"}, "UO-31": {"tested_on": "UO-31"}, "SK-MEL-28": {"tested_on": "SK-MEL-28"}, "786-0": {"tested_on": "786-0"}, "HOP-92": {"tested_on": "HOP-92"}, "K562": {"tested_on": "K562"}, "LOX IMVI": {"tested_on": "LOX IMVI"}, "EKVX": {"tested_on": "EKVX"}, "OVCAR-3": {"tested_on": "OVCAR-3"}, "TK-10": {"tested_on": "TK-10"}, "SF-539": {"tested_on": "SF-539"}, "KM12": {"tested_on": "KM12"}, "HCT-116": {"tested_on": "HCT-116"}, "SW-620": {"tested_on": "SW-620"}, "PC-3": {"tested_on": "PC-3"}, "MCF7": {"tested_on": "MCF7"}}, "note": "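Step 1: Grow cells in 96-well plates. Step 2: Expose to compound for 48 hours at 5 concentrations. Step 3: Interpolate endpoints linearly; if unreached, use highest concentration. GI50 marks 50% less growth.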 Active and inactive are the calls of the source. Rule as the data show it: active = GI50 up to about 1.1 µM and inactive = higher.", "data": [{"compound": "N#Cc1cccc2c1Nc1ccccc1S2", "values": [{"measurement": "GI50", "setting": "HT-29", "value": "> 100 µM (inactive)"}, {"measurement": "GI50", "setting": "HOP-62", "value": "43.4 µM (inactive)"}, {"measurement": "GI50", "setting": "OVCAR-5", "value": "> 100 µM (inactive)"}, {"measurement": "GI50", "setting": "UO-31", "value": "> 100 µM (inactive)"}, {"measurement": "GI50", "setting": "SK-MEL-28", "value": "> 100 µM (inactive)"}, {"measurement": "GI50", "setting": "786-0", "value": "55.1 µM (inactive)"}, {"measurement": "GI50", "setting": "HOP-92", "value": "20.2 µM (inactive)"}, {"measurement": "GI50", "setting": "K562", "value": "> 100 µM (inactive)"}, {"measurement": "GI50", "setting": "LOX IMVI", "value": "> 100 µM (inactive)"}, {"measurement": "GI50", "setting": "EKVX", "value": "> 100 µM (inactive)"}, {"measurement": "GI50", "setting": "OVCAR-3", "value": "> 100 µM (inactive)"}, {"measurement": "GI50", "setting": "TK-10", "value": "> 100 µM (inactive)"}, {"measurement": "GI50", "setting": "SF-539", "value": "46.7 µM (inactive)"}, {"measurement": "GI50", "setting": "KM12", "value": "> 100 µM (inactive)"}, {"measurement": "GI50", "setting": "HCT-116", "value": "> 100 µM (inactive)"}, {"measurement": "GI50", "setting": "SW-620", "value": "> 100 µM (inactive)"}]}, {"compound": "CC1=C(C(=O)NCc2ccccc2)C(/C=C/c2ccccc2)C(C(=O)NCc2ccccc2)=C(C)N1", "values": [{"measurement": "GI50", "setting": "HT-29", "value": "> 100 µM (inactive)"}, {"measurement": "GI50", "setting": "HOP-62", "value": "> 100 µM (inactive)"}, {"measurement": "GI50", "setting": "OVCAR-5", "value": "> 100 µM (inactive)"}, {"measurement": "GI50", "setting": "UO-31", "value": "> 100 µM (inactive)"}, {"measurement": "GI50", "setting": "SK-MEL-28", "value": "> 100 µM (inactive)"}, {"measurement": "GI50", "setting": "786-0", "value": "> 100 µM (inactive)"}, {"measurement": "GI50", "setting": "HOP-92", "value": "> 100 µM (inactive)"}, {"measurement": "GI50", "setting": "K562", "value": "> 100 µM (inactive)"}, {"measurement": "GI50", "setting": "LOX IMVI", "value": "> 100 µM (inactive)"}, {"measurement": "GI50", "setting": "EKVX", "value": "> 100 µM (inactive)"}, {"measurement": "GI50", "setting": "OVCAR-3", "value": "> 100 µM (inactive)"}, {"measurement": "GI50", "setting": "TK-10", "value": "> 100 µM (inactive)"}, {"measurement": "GI50", "setting": "SF-539", "value": "> 100 µM (inactive)"}, {"measurement": "GI50", "setting": "KM12", "value": "> 100 µM (inactive)"}, {"measurement": "GI50", "setting": "HCT-116", "value": "> 100 µM (inactive)"}, {"measurement": "GI50", "setting": "SW-620", "value": "> 100 µM (inactive)"}]}, {"compound": "COc1c(I)c(OC)c2c(c1I)O[C@@H]1OCC[C@H]21", "values": [{"measurement": "GI50", "setting": "HT-29", "value": "39.4 µM (inactive)"}, {"measurement": "GI50", "setting": "HOP-62", "value": "17.4 µM (inactive)"}, {"measurement": "GI50", "setting": "OVCAR-5", "value": "41.1 µM (inactive)"}, {"measurement": "GI50", "setting": "UO-31", "value": "22.4 µM (inactive)"}, {"measurement": "GI50", "setting": "SK-MEL-28", "value": "34.2 µM (inactive)"}, {"measurement": "GI50", "setting": "786-0", "value": "34.8 µM (inactive)"}, {"measurement": "GI50", "setting": "HOP-92", "value": "22.7 µM (inactive)"}, {"measurement": "GI50", "setting": "K562", "value": "41.2 µM (inactive)"}, {"measurement": "GI50", "setting": "LOX IMVI", "value": "32.4 µM (inactive)"}, {"measurement": "GI50", "setting": "EKVX", "value": "74.8 µM (inactive)"}, {"measurement": "GI50", "setting": "OVCAR-3", "value": "27.7 µM (inactive)"}, {"measurement": "GI50", "setting": "TK-10", "value": "40.6 µM (inactive)"}, {"measurement": "GI50", "setting": "SF-539", "value": "> 100 µM (inactive)"}, {"measurement": "GI50", "setting": "KM12", "value": "29.7 µM (inactive)"}, {"measurement": "GI50", "setting": "HCT-116", "value": "35.6 µM (inactive)"}, {"measurement": "GI50", "setting": "SW-620", "value": "35 µM (inactive)"}]}, {"compound": "Cc1cccc(NS(=O)(=O)c2ccc(/N=N/c3c(O)c(C(=O)O)cc4ccccc34)cc2)n1", "values": [{"measurement": "GI50", "setting": "HT-29", "value": "> 100 µM (inactive)"}, {"measurement": "GI50", "setting": "HOP-62", "value": "> 100 µM (inactive)"}, {"measurement": "GI50", "setting": "OVCAR-5", "value": "> 100 µM (inactive)"}, {"measurement": "GI50", "setting": "UO-31", "value": "> 100 µM (inactive)"}, {"measurement": "GI50", "setting": "SK-MEL-28", "value": "> 100 µM (inactive)"}, {"measurement": "GI50", "setting": "PC-3", "value": "> 100 µM (inactive)"}, {"measurement": "GI50", "setting": "MCF7", "value": "> 100 µM (inactive)"}, {"measurement": "GI50", "setting": "786-0", "value": "> 100 µM (inactive)"}, {"measurement": "GI50", "setting": "HOP-92", "value": "> 100 µM (inactive)"}, {"measurement": "GI50", "setting": "K562", "value": "> 100 µM (inactive)"}, {"measurement": "GI50", "setting": "EKVX", "value": "> 100 µM (inactive)"}, {"measurement": "GI50", "setting": "OVCAR-3", "value": "> 100 µM (inactive)"}, {"measurement": "GI50", "setting": "TK-10", "value": "> 100 µM (inactive)"}, {"measurement": "GI50", "setting": "SF-539", "value": "> 100 µM (inactive)"}, {"measurement": "GI50", "setting": "KM12", "value": "> 100 µM (inactive)"}, {"measurement": "GI50", "setting": "HCT-116", "value": "> 100 µM (inactive)"}, {"measurement": "GI50", "setting": "SW-620", "value": "> 100 µM (inactive)"}]}, {"compound": "Cc1ccccc1-n1c(CCl)nc2ccc(Br)cc2c1=O", "values": [{"measurement": "GI50", "setting": "HT-29", "value": "4.29 µM (inactive)"}, {"measurement": "GI50", "setting": "HOP-62", "value": "23.4 µM (inactive)"}, {"measurement": "GI50", "setting": "OVCAR-5", "value": "24.4 µM (inactive)"}, {"measurement": "GI50", "setting": "UO-31", "value": "14.9 µM (inactive)"}, {"measurement": "GI50", "setting": "SK-MEL-28", "value": "17.5 µM (inactive)"}, {"measurement": "GI50", "setting": "786-0", "value": "8.17 µM (inactive)"}, {"measurement": "GI50", "setting": "HOP-92", "value": "12.8 µM (inactive)"}, {"measurement": "GI50", "setting": "K562", "value": "0.354 µM (active)"}, {"measurement": "GI50", "setting": "LOX IMVI", "value": "0.0333 µM (active)"}, {"measurement": "GI50", "setting": "EKVX", "value": "18.1 µM (inactive)"}, {"measurement": "GI50", "setting": "OVCAR-3", "value": "14.2 µM (inactive)"}, {"measurement": "GI50", "setting": "TK-10", "value": "24.7 µM (inactive)"}, {"measurement": "GI50", "setting": "SF-539", "value": "7.16 µM (inactive)"}, {"measurement": "GI50", "setting": "KM12", "value": "13.6 µM (inactive)"}, {"measurement": "GI50", "setting": "HCT-116", "value": "9.53 µM (inactive)"}, {"measurement": "GI50", "setting": "SW-620", "value": "3.13 µM (inactive)"}]}, {"compound": "COc1cccc(/C=C2\\CCCc3ccccc3C2=O)c1", "values": [{"measurement": "GI50", "setting": "HT-29", "value": "17.1 µM (inactive)"}, {"measurement": "GI50", "setting": "HOP-62", "value": "16.1 µM (inactive)"}, {"measurement": "GI50", "setting": "OVCAR-5", "value": "15.3 µM (inactive)"}, {"measurement": "GI50", "setting": "UO-31", "value": "15.1 µM (inactive)"}, {"measurement": "GI50", "setting": "SK-MEL-28", "value": "18.1 µM (inactive)"}, {"measurement": "GI50", "setting": "PC-3", "value": "16.2 µM (inactive)"}, {"measurement": "GI50", "setting": "MCF7", "value": "13.6 µM (inactive)"}, {"measurement": "GI50", "setting": "786-0", "value": "13.1 µM (inactive)"}, {"measurement": "GI50", "setting": "HOP-92", "value": "13.4 µM (inactive)"}, {"measurement": "GI50", "setting": "K562", "value": "16.1 µM (inactive)"}, {"measurement": "GI50", "setting": "LOX IMVI", "value": "17.4 µM (inactive)"}, {"measurement": "GI50", "setting": "EKVX", "value": "21.3 µM (inactive)"}, {"measurement": "GI50", "setting": "OVCAR-3", "value": "17.1 µM (inactive)"}, {"measurement": "GI50", "setting": "TK-10", "value": "26.4 µM (inactive)"}, {"measurement": "GI50", "setting": "SF-539", "value": "17.1 µM (inactive)"}, {"measurement": "GI50", "setting": "KM12", "value": "17.6 µM (inactive)"}, {"measurement": "GI50", "setting": "HCT-116", "value": "13.3 µM (inactive)"}, {"measurement": "GI50", "setting": "SW-620", "value": "17.3 µM (inactive)"}]}]}
